According to patent US6829540B1, “Drug discovery using multiple membrane mimetic affinities” (priority 1997, dated 2004):
Read-outs that look alike come from different tables or passages of the source.

Assays:
[1] = HPLC membrane binding on immobilized artificial membrane IAM.SM; type: physicochemical; conditions: for Membrane affinity IAM.SM: Ln weighted, Table 3; for Membrane binding properties IAM.SM: Table 1
Protocol: (§1) The analysis is made by pattern matching membrane binding constants measured on immobilized artificial membrane columns in a high performance liquid chromatography system. Two or more immobilized artificial membrane chromatographic columns are used. Each test compound is injected and chromatographed on each column and the peak width and the peak time of the test compound is recorded and normalized to an internal or external standard. Thus experimentally measured selectivity values (αk′=k′/k′ standard) and normalized standard deviations (αsd=σ/σstandard) were calculated for both the test compounds and compounds of known biological properties. Pattern matching using vector calculus, multivariate analysis or principal component analysis of the αk′ and αsd values of the test compound and the control compounds allows comparison of the membrane binding properties of the test compounds and each of the control compounds or, if the control compounds all have a common biological activity/property, average or mean membrane binding values of the set of control compounds for each membrane surface.
(§2) Membrane binding constants (k′ values) are calculated in accordance with the formula k′=(tr−t0)/t0 wherein tr is the retention time and t0 is the dead time obtained from each injection; however, t0 in the denominator was obtained by averaging the experimentally determined t0 from all injections for each day the data are collected.
(§3) The use of chromatography on immobilized artificial membranes provides data characteristic of both equilibrium binding to the respective membrane mimetic surface (k′ values) and the kinetics of mass transfer between the immobilized artificial membrane surface and the mobile phase (i.e. δ values). […] This unavoidable variation in the experimentally determined k′ and δ values for each test compound and each control compound is eliminated, for pattern matching purposes, by normalizing k′ and δ values to an internal or external standard compound chromatographed on each immobilized artificial membrane column. Thus k′ and δ values for the test compounds are each divided by the respective k′ and δ values of the standard to calculate αk′ and αsd, the selectivity values and normalized standard deviations, respectively. For k′ values, α denotes the selectivity of the immobilized artificial membrane chromatographic surface for molecular recognition of the analyte; α is a thermodynamic property and corresponds to a ratio of membrane partition coefficients.
(§4) Thus, in one embodiment of this invention the membrane binding properties of six hallucinogens were measured on immobilized artificial membranes (IAMs) prepared from phosphatidylcholine (IAM.PC), phosphatidylserine (IAM.PS), phosphatidylethanolamine (IAM.PE), and sphingomyelin (IAM.SM). Mean vectors were calculated for several therapeutic classes of compounds. The calculated mean vector (i.e., the average vector representing a group of compounds with similar biological activity) is shown in Table 1 for hallucinogenic compounds.
(§5) In one embodiment of this invention membrane binding constants are measured by injecting the drugs into high performance liquid chromatographs (HPLC) using immobilized artificial membrane (IAM) columns using the following IAM stationary phases:
(§6) ^esterIAM.PC^C10/C3, ^esterIAM.PE^C10/C3, ^esterIAM.PS^C10/C3, and ^esterIAM.SM^C10/C3
(§7) The peak position of the drug in the chromatogram is a measure of the affinity of the compound for the immobilized membrane surface. The retention time (peak time) was used to calculate the capacity factor, k′, of the compound for the IAM surface. Capacity factors are proportional to equilibrium membrane binding constants K according to
(§8) Membrane binding data (numerical values relating to interaction with membranes or membrane mimetic surfaces) were obtained using HPLC chromatography on a multiplicity of membrane mimetic surfaces, preferably immobilized artificial membranes (IAMs). […]

[2] = HPLC membrane binding on immobilized artificial membrane IAM.PC; type: physicochemical; conditions: for Membrane affinity IAM.PC: Ln weighted, Table 3; for Membrane binding properties IAM.PC: Table 1
Protocol: as §1, §2, §3, §4, §5, §6, §7, §8

[3] = HPLC membrane binding on immobilized artificial membrane IAM.PS; type: physicochemical; conditions: for Membrane affinity IAM.PS: Ln weighted, Table 3; for Membrane binding properties IAM.PS: Table 1
Protocol: as §1, §2, §3, §4, §5, §6, §7, §8

[4] = HPLC membrane binding on immobilized artificial membrane IAM.PE; type: physicochemical; conditions: for Membrane affinity IAM.PE: Ln weighted, Table 3; for Membrane binding properties IAM.PE: Table 1
Protocol: as §1, §2, §3, §4, §5, §6, §7, §8

[5] = cited from earlier work
[6] = Table 6, low oral absorption training set
[7] = Table 9, compounds with low oral absorption
[8] = Table 7, compounds completely absorbed
[9] = Table 8, high oral absorption training set

For CN(C)CCc1c[nH]c2cccc(O)c12 [psilocin], the “Membrane affinity IAM.SM” value [1] was 0.502, the “Membrane binding properties IAM.SM” value [1] was 7.532 and the “Membrane affinity IAM.PC” value [2] was 0.900. The “Membrane binding properties IAM.PC” value [2] was 4.656, the “Membrane affinity IAM.PS” value [3] was 2.80 and the “Membrane binding properties IAM.PS” value [3] was 4.941. For the same molecule, the “Membrane affinity IAM.PE” value [4] was 1.79 and the “Membrane binding properties IAM.PE” value [4] was 4.818.

With CC(N)Cc1ccc2c(c1)OCO2 (stereo not drawn) [MDA, 3,4-methylendioxyamphetamine] the “Membrane affinity IAM.SM” value [1] was −0.0647, the “Membrane affinity IAM.PC” value [2] was 0.298 and the “Membrane affinity IAM.PS” value [3] was 3.28. The “Membrane affinity IAM.PE” value [4] was 1.32.

In the case of CCCC(=O)Nc1ccc(OCC(O)CNC(C)C)c(C(C)=O)c1 (stereo not drawn) [acebutolol], the “Oral Absorption (%)” value [5, 6] is listed as 37% and the “Oral Absorption (%)” value [5, 7] is listed as 37%.

For COc1cc([C@@H]2c3cc4c(cc3[C@@H](O[C@@H]3O[C@@H]5CO[C@@H](C)O[C@H]5[C@H](O)[C@H]3O)[C@H]3COC(=O)[C@H]23)OCO4)cc(OC)c1O [etoposide], the “Oral Absorption (%)” value [5, 6] is listed as 50% and the “Oral Absorption (%)” value [5, 7] is listed as 50%.

In the case of O=C1CN=C(c2ccccc2Cl)c2cc([N+](=O)[O-])ccc2N1 [clonazepam], the “Oral Absorption (%)” value [5, 8] is listed as 98% and the “Oral Absorption (%)” value [5, 9] is listed as 98%.

For COc1cc(CCNC(C)=O)cc(OC)c1OC [n-acetylmescaline], the “Membrane binding properties IAM.SM” value [1] was 1.051, the “Membrane binding properties IAM.PC” value [2] was 0.706 and the “Membrane binding properties IAM.PS” value [3] was 0.736. The “Membrane binding properties IAM.PE” value [4] was 1.323.

For C=CCc1ccccc1OCC(O)CNC(C)C (stereo not drawn) [alprenolol], the “Oral Absorption (%)” value [5, 8] is listed as 96% and the “Oral Absorption (%)” value [5, 9] is listed as 96%.

For CC(N)Cc1ccc(I)cc1 (stereo not drawn) [p-iodoamphetamine], the “Membrane binding properties IAM.SM” value [1] was 32.410, the “Membrane binding properties IAM.PC” value [2] was 24.880 and the “Membrane binding properties IAM.PS” value [3] was 258.100. The “Membrane binding properties IAM.PE” value [4] was 33.660.

In the case of O=C1NC(=O)C(c2ccccc2)(c2ccccc2)N1 [phenytoin], the “Oral Absorption (%)” value [5, 8] is listed as 100% and the “Oral Absorption (%)” value [5, 9] is listed as 100%.

With COc1cc(CC(C)N)c(OC)cc1Br (stereo not drawn) [2,5-dimethoxy-4-bromoamphetamine] the “Membrane affinity IAM.SM” value [1] was 1.62, the “Membrane binding properties IAM.SM” value [1] was 20.970 and the “Membrane affinity IAM.PC” value [2] was 2.07. For the same molecule, the “Membrane binding properties IAM.PC” value [2] was 15.260, the “Membrane affinity IAM.PS” value [3] was 4.68 and the “Membrane binding properties IAM.PS” value [3] was 143.400. The “Membrane affinity IAM.PE” value [4] was 3.22 and the “Membrane binding properties IAM.PE” value [4] was 20.950.

For COc1cc(C[C@@H](C)N)c(OC)cc1I [(R)-2,5-dimethoxy-4-iodoamphetamine], the “Membrane binding properties IAM.SM” value [1] was 53.41, the “Membrane binding properties IAM.PC” value [2] was 55.53 and the “Membrane binding properties IAM.PS” value [3] was 260.200. The “Membrane binding properties IAM.PE” value [4] was 29.76.

In the case of CNC1(c2ccccc2Cl)CCCCC1=O (stereo not drawn) [ketamine], the “Oral Absorption (%)” value [5, 6] is given as 20% and the “Oral Absorption (%)” value [5, 7] is given as 20%.

For CCN1CCCC1CNC(=O)c1cc(S(N)(=O)=O)ccc1OC (stereo not drawn) [sulpiride], the “Oral Absorption (%)” value ([5]; in vivo, po) is listed as 36%.

In the case of COc1cc(CC(C)N)c(OC)cc1I (stereo not drawn) [DOI], the “Membrane affinity IAM.SM” value [1] is reported as 2.14, the “Membrane affinity IAM.PC” value [2] is reported as 2.61 and the “Membrane affinity IAM.PS” value [3] is reported as 6.13. For the same molecule, the “Membrane affinity IAM.PE” value [4] was 3.73.

With COc1cc(CCN)cc(OC)c1OC [mescaline] the “Membrane affinity IAM.SM” value [1] was −0.715, the “Membrane binding properties IAM.SM” value [1] was 2.074 and the “Membrane affinity IAM.PC” value [2] was −0.477. For the same molecule, the “Membrane binding properties IAM.PC” value [2] was 1.476, the “Membrane affinity IAM.PS” value [3] was 2.43 and the “Membrane binding properties IAM.PS” value [3] was 12.280. For the same molecule, the “Membrane affinity IAM.PE” value [4] was 0.670 and the “Membrane binding properties IAM.PE” value [4] was 2.134.

In the case of C[C@]12C[C@H](O)[C@H]3[C@@H](CCC4=CC(=O)CC[C@@]43C)[C@@H]1CC[C@@H]2C(=O)CO [corticosterone], the “Oral Absorption (%)” value [5, 8] is listed as 100% and the “Oral Absorption (%)” value [5, 9] is listed as 100%.

In the case of CNC(=C[N+](=O)[O-])NCCSCc1ccc(CN(C)C)o1 [ranitidie, ranitidine], the “Oral Absorption (%)” value [5, 6] is listed as 50% and the “Oral Absorption (%)” value [5, 7] is listed as 50%.

In the case of CCC1(c2ccccc2)C(=O)NC(=O)NC1=O [phenobarbital], the “Oral Absorption (%)” value [5, 8] is given as 100% and the “Oral Absorption (%)” value [5, 9] is given as 100%.

For CNC1=Nc2ccc(Cl)cc2C(c2ccccc2)=[N+]([O-])C1 [chlorodiazepoxide, chlordiazepoxide], the “Oral Absorption (%)” value [5, 8] is listed as 100% and the “Oral Absorption (%)” value [5, 9] is listed as 100%.

For CCOC(=O)C(C)(C)Oc1ccc(Cl)cc1 [clofibrate], the “Oral Absorption (%)” value [5, 8] is listed as 95% and the “Oral Absorption (%)” value [5, 9] is listed as 95%.

In the case of Clc1cccc(Cl)c1N=C1NCCN1 [clonidine], the “Oral Absorption (%)” value [5, 8] is listed as 95% and the “Oral Absorption (%)” value [5, 9] is listed as 95%.
